Experiments:
Histone deacetylase 1 = Histone deacetylase 1 (Homo sapiens, UniProt Q13547); experiment: Inhibition of human full length C-terminal Flag tagged HDAC1 expressed in HEK293T cells using H3K9-myristoyl peptide as substrate by HPLC method
Histone deacetylase 3 = Histone deacetylase 3 (Homo sapiens, UniProt O15379); experiment: Inhibition of HDAC3 (unknown origin)
Histone deacetylase 5 [1] = biological target: T1, Histone deacetylase 5 (Homo sapiens, UniProt Q9UQL6); experiment: Inhibition of HDAC5 (unknown origin)
[2] = biological target: T2, Polyamine deacetylase HDAC10 (Homo sapiens, UniProt Q969S8); experiment: Inhibition of HDAC10 (unknown origin)
T2 sequence (Q969S8 whole entry): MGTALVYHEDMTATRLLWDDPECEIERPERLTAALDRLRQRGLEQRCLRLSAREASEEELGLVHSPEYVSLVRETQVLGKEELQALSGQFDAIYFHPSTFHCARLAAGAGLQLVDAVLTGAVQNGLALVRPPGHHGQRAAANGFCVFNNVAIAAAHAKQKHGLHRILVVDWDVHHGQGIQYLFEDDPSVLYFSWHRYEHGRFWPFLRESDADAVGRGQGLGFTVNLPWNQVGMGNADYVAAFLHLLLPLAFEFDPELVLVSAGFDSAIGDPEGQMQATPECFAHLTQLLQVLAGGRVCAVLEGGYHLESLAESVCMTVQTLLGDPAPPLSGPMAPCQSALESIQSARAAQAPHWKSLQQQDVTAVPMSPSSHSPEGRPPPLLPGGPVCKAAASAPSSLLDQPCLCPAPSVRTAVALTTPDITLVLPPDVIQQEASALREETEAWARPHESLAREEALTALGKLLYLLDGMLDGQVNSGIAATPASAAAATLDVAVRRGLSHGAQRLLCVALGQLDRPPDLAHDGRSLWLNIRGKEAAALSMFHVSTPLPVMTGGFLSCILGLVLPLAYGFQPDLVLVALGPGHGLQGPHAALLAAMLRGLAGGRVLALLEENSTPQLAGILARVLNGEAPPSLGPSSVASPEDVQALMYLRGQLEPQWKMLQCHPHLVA

Histone deacetylase 9 = Histone deacetylase 9 (Homo sapiens, UniProt Q9UKV0); experiment: Inhibition of HDAC9 (unknown origin)
Histone deacetylase 2 = Histone deacetylase 2 (Homo sapiens, UniProt Q92769); experiment: Inhibition of HDAC2 (unknown origin)
Histone deacetylase 8 = biological target: T3, Histone deacetylase 8 (Homo sapiens, UniProt Q9BY41); experiment: Inhibition of HDAC8 (unknown origin) using p53 (379 to 382 residues)(RHK(Ac)K(ac)AMC) as substrate by fluorescent method
T3 sequence (Q9BY41 whole entry): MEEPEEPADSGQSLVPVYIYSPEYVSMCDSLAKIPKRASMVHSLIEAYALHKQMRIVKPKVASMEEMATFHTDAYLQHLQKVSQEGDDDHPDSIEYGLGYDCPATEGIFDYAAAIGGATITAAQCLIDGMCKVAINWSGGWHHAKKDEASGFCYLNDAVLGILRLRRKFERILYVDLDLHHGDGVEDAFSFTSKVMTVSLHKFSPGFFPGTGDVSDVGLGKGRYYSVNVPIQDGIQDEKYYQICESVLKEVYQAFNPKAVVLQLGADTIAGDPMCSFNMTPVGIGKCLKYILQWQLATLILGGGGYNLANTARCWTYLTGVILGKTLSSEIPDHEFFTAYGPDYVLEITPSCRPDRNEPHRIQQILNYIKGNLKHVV

[3] = biological target: T4, Protein deacetylase HDAC6 (Homo sapiens, UniProt Q9UBN7); experiment: Inhibition of HDAC6 (unknown origin) using p53 residues (379 to 382)(RHKK(Ac)-AMC) as substrate by fluorescent method
T4 sequence (Q9UBN7 whole entry): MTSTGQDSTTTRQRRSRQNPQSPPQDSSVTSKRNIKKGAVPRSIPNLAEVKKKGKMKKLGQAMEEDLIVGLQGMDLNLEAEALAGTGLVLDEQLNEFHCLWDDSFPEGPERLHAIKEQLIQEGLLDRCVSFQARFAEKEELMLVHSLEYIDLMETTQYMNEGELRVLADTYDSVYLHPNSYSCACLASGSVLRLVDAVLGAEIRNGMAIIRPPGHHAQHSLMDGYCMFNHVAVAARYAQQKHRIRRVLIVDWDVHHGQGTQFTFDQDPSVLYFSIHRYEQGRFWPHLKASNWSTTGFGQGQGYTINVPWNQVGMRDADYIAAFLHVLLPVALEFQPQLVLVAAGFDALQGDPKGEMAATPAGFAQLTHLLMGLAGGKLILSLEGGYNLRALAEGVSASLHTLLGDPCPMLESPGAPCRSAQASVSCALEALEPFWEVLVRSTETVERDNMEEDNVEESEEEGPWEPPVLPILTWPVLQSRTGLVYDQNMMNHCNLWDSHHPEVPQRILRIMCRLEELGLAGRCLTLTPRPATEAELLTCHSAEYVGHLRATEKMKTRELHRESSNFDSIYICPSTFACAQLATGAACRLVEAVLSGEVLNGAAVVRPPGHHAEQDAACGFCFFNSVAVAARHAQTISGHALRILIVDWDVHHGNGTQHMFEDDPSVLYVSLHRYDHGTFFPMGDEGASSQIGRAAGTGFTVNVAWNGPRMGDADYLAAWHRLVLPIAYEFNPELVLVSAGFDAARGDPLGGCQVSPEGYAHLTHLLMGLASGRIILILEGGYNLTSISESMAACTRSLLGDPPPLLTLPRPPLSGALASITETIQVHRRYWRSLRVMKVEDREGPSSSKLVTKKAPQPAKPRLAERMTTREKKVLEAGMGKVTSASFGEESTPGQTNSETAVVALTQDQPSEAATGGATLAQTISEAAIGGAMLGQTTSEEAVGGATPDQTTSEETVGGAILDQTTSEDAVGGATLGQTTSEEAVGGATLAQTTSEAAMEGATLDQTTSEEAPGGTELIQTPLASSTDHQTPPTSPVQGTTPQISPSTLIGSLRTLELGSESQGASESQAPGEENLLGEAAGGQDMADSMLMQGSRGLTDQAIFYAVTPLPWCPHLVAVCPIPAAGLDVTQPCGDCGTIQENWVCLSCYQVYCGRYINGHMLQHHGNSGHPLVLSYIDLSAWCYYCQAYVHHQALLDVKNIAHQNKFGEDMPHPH

Histone deacetylase 5 [4] = biological target: T1, Histone deacetylase 5; experiment: Inhibition of HDAC5 (unknown origin) using HDAC class IIa substrate (trifluoroacetyl-lysine-AMC) as substrate by fluorescent method

Measured: IC50

T1 sequence (Q9UQL6 whole entry): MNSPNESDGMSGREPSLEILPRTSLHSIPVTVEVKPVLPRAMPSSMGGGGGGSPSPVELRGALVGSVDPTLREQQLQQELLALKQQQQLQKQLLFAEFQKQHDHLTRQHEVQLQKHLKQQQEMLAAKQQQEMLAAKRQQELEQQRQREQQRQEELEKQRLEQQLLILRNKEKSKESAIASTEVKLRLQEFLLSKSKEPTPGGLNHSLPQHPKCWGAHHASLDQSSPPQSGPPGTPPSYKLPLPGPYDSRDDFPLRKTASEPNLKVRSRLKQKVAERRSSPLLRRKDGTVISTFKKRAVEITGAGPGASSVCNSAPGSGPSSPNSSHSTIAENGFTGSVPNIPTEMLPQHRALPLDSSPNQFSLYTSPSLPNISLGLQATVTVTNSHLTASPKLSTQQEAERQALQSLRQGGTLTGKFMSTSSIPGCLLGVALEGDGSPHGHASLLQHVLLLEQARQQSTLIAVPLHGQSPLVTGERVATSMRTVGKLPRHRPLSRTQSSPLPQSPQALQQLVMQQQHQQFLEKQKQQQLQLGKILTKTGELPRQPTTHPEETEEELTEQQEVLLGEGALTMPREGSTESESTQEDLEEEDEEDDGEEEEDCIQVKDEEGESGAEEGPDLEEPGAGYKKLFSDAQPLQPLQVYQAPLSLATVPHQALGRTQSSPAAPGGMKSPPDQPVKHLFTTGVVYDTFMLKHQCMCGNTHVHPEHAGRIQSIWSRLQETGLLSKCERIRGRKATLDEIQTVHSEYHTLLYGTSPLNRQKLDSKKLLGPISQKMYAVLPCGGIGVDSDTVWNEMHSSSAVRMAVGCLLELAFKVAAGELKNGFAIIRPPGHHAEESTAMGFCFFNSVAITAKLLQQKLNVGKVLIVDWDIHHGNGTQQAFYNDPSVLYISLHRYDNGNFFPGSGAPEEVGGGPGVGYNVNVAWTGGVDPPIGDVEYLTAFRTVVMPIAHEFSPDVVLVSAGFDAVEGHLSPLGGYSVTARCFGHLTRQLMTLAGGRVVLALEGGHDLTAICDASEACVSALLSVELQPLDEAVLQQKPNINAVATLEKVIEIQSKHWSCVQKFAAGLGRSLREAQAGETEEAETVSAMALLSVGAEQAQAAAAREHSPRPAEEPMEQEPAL
Histone deacetylase 3, sequence (O15379 whole entry): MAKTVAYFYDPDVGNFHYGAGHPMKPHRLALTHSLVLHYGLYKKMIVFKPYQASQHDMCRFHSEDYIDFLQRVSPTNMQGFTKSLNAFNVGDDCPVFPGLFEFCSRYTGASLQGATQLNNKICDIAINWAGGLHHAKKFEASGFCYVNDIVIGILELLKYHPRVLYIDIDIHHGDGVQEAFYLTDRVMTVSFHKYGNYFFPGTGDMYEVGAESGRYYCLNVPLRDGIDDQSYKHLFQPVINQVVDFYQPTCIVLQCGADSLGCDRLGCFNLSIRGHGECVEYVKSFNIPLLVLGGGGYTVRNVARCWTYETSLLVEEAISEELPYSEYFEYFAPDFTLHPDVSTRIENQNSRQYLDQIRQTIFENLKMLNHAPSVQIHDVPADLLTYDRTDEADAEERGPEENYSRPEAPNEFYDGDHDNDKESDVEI
Histone deacetylase 1, sequence (Q13547 whole entry): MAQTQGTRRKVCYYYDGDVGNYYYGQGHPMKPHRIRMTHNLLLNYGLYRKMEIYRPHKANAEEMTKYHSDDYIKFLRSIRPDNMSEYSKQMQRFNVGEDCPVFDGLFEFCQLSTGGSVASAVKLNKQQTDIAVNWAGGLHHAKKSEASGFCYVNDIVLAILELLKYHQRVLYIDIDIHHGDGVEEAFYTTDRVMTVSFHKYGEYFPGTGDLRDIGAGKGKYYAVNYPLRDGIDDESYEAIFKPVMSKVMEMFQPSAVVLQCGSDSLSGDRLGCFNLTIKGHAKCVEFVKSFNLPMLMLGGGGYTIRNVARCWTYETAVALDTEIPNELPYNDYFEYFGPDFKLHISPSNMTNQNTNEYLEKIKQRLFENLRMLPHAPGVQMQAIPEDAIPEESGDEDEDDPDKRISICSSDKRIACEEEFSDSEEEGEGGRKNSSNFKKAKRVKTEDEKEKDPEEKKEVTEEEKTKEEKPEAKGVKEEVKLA
Histone deacetylase 9, sequence (Q9UKV0 whole entry): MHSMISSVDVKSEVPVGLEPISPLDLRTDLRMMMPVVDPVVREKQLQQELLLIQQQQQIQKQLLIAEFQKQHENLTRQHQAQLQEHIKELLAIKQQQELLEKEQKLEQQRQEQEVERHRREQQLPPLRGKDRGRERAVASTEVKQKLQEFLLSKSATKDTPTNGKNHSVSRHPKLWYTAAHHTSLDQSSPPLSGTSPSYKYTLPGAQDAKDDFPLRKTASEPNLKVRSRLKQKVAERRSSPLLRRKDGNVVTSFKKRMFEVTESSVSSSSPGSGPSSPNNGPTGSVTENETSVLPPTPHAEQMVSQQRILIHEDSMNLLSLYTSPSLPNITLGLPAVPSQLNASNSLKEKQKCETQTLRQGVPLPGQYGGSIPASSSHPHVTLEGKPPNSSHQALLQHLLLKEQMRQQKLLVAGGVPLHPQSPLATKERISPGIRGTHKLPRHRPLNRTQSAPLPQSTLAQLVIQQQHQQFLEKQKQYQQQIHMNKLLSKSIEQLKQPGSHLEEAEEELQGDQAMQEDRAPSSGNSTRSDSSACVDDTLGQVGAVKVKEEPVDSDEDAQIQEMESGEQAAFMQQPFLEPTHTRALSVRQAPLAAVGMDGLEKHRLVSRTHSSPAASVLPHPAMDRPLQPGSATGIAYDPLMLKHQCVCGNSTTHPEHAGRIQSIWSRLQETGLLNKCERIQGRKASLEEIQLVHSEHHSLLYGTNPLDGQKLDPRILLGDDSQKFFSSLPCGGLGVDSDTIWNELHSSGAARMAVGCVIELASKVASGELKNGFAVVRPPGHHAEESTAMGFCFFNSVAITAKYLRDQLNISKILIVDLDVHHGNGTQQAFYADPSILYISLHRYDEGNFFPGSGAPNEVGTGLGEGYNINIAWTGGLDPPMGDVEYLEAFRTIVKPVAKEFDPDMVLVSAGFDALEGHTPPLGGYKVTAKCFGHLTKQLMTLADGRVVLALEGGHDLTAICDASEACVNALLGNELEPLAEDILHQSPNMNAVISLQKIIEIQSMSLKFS
Histone deacetylase 2, sequence (Q92769 whole entry, the tested form may be a part): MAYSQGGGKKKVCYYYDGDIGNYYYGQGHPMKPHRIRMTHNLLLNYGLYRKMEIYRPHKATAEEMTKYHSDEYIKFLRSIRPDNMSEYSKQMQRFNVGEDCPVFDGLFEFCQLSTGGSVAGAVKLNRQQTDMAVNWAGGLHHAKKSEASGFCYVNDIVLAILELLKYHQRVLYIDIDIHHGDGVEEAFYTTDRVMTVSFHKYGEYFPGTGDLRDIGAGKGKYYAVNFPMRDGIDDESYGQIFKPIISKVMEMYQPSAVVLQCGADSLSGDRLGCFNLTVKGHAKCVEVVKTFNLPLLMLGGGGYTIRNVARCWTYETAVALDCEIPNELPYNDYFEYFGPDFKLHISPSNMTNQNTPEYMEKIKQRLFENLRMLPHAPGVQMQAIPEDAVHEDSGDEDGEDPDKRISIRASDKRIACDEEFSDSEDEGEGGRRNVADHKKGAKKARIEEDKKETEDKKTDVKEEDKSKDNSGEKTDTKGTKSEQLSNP

CCCCCCCCCCCCCCCCNNC(=O)c1cccs1
not listed: Histone deacetylase 8 | [3] | Histone deacetylase 5 [4]
> 10 µM: all other assays above

Cn1cc(-c2ccc(S(=O)(=O)n3ccc(/C=C/C(=O)Nc4ccccc4N)c3)cc2)cn1 [DOMATINOSTAT]
> 10 µM: Histone deacetylase 8 | [3] | Histone deacetylase 5 [4]

Source: ChEMBL document CHEMBL4765362, “Thirty Years of HDAC Inhibitors: 2020 Insight and Hindsight” (J Med Chem, 2020)
